# Results as given in patent publication US20100267784A1, “NOVEL 4,5-DIHYDROISOXAZOLES WITH ESTROGENIC ACTIVITY” (priority 2007, published 2010).
# “And” between values parts separate entries of the source, which are not always exact repeats. Equal entries are not always repeated.
# Experiments:
# ERβ = ERβ (Homo sapiens, UniProt Q92731); assay: ERβ reporter (luciferase) transactivation assay in transfected HEK293 cells; format: cell-based; design: expressed in transfected cells; host or cells: HEK293; settings: for ERβ receptor activation relative to 10 nM E2 corresponding 100: sample concentration 10 μM, 24 hours, mean of at least three independent transfections; for activation at 10 µM: HEK293, 24 h, read-out: ERβ receptor activation relative to 10 nM E2 corresponding 100, sample concentration 10 μM, mean of at least three independent transfections
# Experimental: (§1) Determination of the Estrogen Activity of the Compounds: Cell Culture, Transfection and Reporter Assays
# (§2) All other reagents were of reagent grade from Sigma or Fluka. One day before transfection, HEK293 cells were seeded in 48-well plates (70×10^3 cells per well) in phenol-free Dulbecco's modified Eagle medium supplemented with 5% delipidated fetal bovine serum (Sigma) and antibiotics. After a medium change, the cells were transfected for 4 hours with 5 ng ERα or ERβ expression vector, 75 ng reporter plasmid pERE2TATA-LUC and 20 ng control plasmid pCMVβ by the calcium phosphate method. After transfection, the cells received fresh medium containing either vehicle (0.1% v/v) or test compound (10 μM). After 24 hours, the cells were washed, lysed and luciferase and β-galactosidase activities were determined from 20 μl of lysates with the Victor^2TM reader (PerkinElmer Wallac, Turku, Finland). […] The data are means ±SEM of at least three independent transfections.
# ERα = biological target: T1, ERα (Homo sapiens, UniProt P03372); assay: ERα reporter (luciferase) transactivation assay in transfected HEK293 cells; format: cell-based; design: expressed in transfected cells; host or cells: HEK293; settings: sample concentration 10 μM, 24 hours, mean of at least three independent transfections
# T1 sequence (P03372 1-595): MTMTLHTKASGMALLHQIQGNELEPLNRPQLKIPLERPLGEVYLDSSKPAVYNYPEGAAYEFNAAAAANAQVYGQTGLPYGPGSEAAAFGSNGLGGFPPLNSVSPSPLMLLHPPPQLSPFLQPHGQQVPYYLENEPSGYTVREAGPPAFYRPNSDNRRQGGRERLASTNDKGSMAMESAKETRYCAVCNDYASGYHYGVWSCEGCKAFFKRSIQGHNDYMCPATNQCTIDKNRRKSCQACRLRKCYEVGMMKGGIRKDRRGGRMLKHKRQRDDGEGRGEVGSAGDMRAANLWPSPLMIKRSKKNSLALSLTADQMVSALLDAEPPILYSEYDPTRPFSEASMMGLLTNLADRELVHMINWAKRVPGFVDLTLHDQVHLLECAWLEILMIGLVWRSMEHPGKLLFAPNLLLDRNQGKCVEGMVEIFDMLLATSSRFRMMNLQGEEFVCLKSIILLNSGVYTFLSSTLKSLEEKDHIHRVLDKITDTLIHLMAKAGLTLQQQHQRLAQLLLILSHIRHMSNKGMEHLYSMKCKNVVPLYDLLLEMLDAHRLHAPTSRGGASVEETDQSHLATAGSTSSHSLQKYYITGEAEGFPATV
# Experimental: as §1, §2
# Sequence of ERβ (Q92731 whole entry): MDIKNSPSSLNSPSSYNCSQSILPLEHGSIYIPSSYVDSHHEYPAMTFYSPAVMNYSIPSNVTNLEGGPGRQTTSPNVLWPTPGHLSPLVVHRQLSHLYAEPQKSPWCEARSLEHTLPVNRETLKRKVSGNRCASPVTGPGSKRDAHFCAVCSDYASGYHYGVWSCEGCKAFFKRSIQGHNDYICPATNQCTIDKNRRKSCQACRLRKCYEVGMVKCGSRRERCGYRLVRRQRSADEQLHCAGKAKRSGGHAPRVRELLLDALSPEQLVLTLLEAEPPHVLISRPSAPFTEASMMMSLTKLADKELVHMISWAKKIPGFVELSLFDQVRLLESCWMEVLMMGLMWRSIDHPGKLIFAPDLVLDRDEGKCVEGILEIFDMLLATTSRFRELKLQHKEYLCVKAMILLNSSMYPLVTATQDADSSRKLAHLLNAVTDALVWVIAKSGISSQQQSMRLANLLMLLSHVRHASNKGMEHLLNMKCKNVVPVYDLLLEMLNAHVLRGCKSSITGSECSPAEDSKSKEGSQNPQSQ
Structure (SMILES),melting point,also measured
"c1ccc(CCC2CC(c3ccccc3)=NO2)cc1 (single isomer, unassigned) [111b, 5-Phenethyl-3-phenyl-4,5-dihydroisoxazole]",,ERβ receptor activation relative to 10 nM E2 corresponding 100 (ERβ): −6.0%; ERα receptor activation relative to 10 nM E2 corresponding 100 (ERα): 1.1%
"c1ccc(CCCC2=NOC(Cc3ccccc3)C2)cc1 (single isomer, unassigned) [114a, 5-Benzyl-3-(3-phenyl-propyl)-4,5-dihydro-isoxazole]",,ERβ receptor activation relative to 10 nM E2 corresponding 100 (ERβ): 13.6%; ERα receptor activation relative to 10 nM E2 corresponding 100 (ERα): 31.3%
"c1ccc(CCCC2=NOC(Cc3ccccc3)C2)cc1 (single isomer, unassigned) [114b, 5-Benzyl-3-(3-phenyl-propyl)-4,5-dihydro-isoxazole]",,ERβ receptor activation relative to 10 nM E2 corresponding 100 (ERβ): 5.1%; ERα receptor activation relative to 10 nM E2 corresponding 100 (ERα): 28.1%
"c1ccc(CCC2=NOC(CCc3ccccc3)C2)cc1 (single isomer, unassigned) [116a, 3,5-Di-phenethyl-4,5-dihydroisoxazole]",,ERβ receptor activation relative to 10 nM E2 corresponding 100 (ERβ): 0.2%; ERα receptor activation relative to 10 nM E2 corresponding 100 (ERα): 3.4%
"c1ccc(CCC2=NOC(CCc3ccccc3)C2)cc1 (single isomer, unassigned) [116b, 3,5-Di-phenethyl-4,5-dihydroisoxazole]",,ERβ receptor activation relative to 10 nM E2 corresponding 100 (ERβ): −0.4%; ERα receptor activation relative to 10 nM E2 corresponding 100 (ERα): 43.9%
"Fc1cccc(CC2=NOC(CCc3ccccc3)C2)c1 (stereo not shown) [69ab, 3-(3-Fluorobenzyl)-5-phenethyl-4,5-dihydroisoxazole]",,activation at 10 µM (ERβ): 10.6%; ERα receptor activation relative to 10 nM E2 corresponding 100 (ERα): 19.5% and 19.7%
"Oc1cccc(C2CC(Cc3ccccc3)=NO2)c1 (stereo not shown) [82ab, 3-Benzyl-5-(3-hydroxy-phenyl)-4,5-dihydro-isoxazole]",,activation at 10 µM (ERβ): 6.6%; ERα receptor activation relative to 10 nM E2 corresponding 100 (ERα): 21.6%
"c1ccc(CCC2CC(Cc3ccccc3)=NO2)cc1 (stereo not shown) [108ab, 3-Benzyl-5-phenethyl-4,5-dihydroisoxazole]",,activation at 10 µM (ERβ): 1.2%; ERα receptor activation relative to 10 nM E2 corresponding 100 (ERα): 37.0%
"c1ccc(CC2=NOC(c3ccccc3)C2)cc1 (stereo not shown) [112ab, 3-Benzyl-5-phenyl-4,5-dihydroisoxazole]",,activation at 10 µM (ERβ): 34.4%; ERα receptor activation relative to 10 nM E2 corresponding 100 (ERα): 19.6%
"CC1(c2ccccc2)CC(CCCc2ccccc2)=NO1 (stereo not shown) [115ab, 5-Methyl-5-phenyl-3-(3-phenyl-propyl)-4,5-dihydro-isoxazole]",,activation at 10 µM (ERβ): 15.5%; ERα receptor activation relative to 10 nM E2 corresponding 100 (ERα): 69.5%
"COc1ccccc1C1=NOC(Cc2ccccc2)C1 (stereo not shown) [compound 6, 5-Benzyl-3-(2-methoxyphenyl)-4,5-dihydroisoxazole]",81 to 82 °C,
"COc1ccc(C2=NOC(Cc3ccccc3)C2)cc1 (stereo not shown) [compound 12, 5-Benzyl-3-(4-methoxyphenyl)-4,5-dihydroisoxazole]",99.6 to 100.3 °C,
"COc1ccc(CC2CC(c3ccc(OC)cc3)=NO2)cc1 (stereo not shown) [compound 15, 5-(4-Methoxybenzyl)-3-(4-methoxyphenyl)-4,5-dihydroisoxazole]",135.8 to 137.7 °C,
"COc1ccc(C2=NOC(Cc3ccc(F)cc3)C2)cc1 (stereo not shown) [compound 18, 5-(4-Fluorobenzyl)-3-(4-methoxyphenyl)-4,5-dihydroisoxazole]",116.7 to 118.7 °C,
"COc1ccc(C2=NOC(Cc3c(F)c(F)c(F)c(F)c3F)C2)cc1 (stereo not shown) [compound 19, 3-(4-methoxyphenyl)-5-pentafluorobenzyl-4,5-dihydroisoxazole]",123 to 124 °C,
"Clc1ccc(C2=NOC(Cc3ccccc3)C2)cc1 (stereo not shown) [compound 33, 5-Benzyl-3-(4-Chlorophenyl)-4,5-dihydroisoxazole]",128.2 to 129.4 °C,
"CCc1ccc(CC2CC(c3ccc(Cl)cc3)=NO2)cc1 (stereo not shown) [compound 34, 3-(4-Chlorophenyl)-5-(4-ethylbenzyl)-4,5-dihydroisoxazole]",117.1 to 119.2 °C,
"COc1ccccc1CC1CC(c2ccc(Cl)cc2)=NO1 (stereo not shown) [compound 36, 3-(4-Chlorophenyl)-5-(2-methoxybenzyl)-4,5-dihydroisoxazole]",109.9 to 111.2 °C,
"COc1ccc(CC2CC(c3ccc(Cl)cc3)=NO2)cc1 (stereo not shown) [compound 38, 3-(4-Chlorophenyl)-5-(4-methoxybenzyl)-4,5-dihydroisoxazole]",126.2 to 127.3 °C,
"COc1ccc(CC2CC(c3ccc(Cl)cc3)=NO2)cc1OC (stereo not shown) [compound 39, 3-(4-Chlorophenyl)-5-(3,4-dimethoxybenzyl)-4,5-dihydroisoxazole]",89 to 90.4 °C,

Structure (SMILES),melting point,also measured
"Clc1ccc(C2=NOC(Cc3cccc4ccccc34)C2)cc1 (stereo not shown) [compound 41, 3-(4-Chlorophenyl)-5-naphthalen-1-ylmethyl-4,5-dihydro-isoxazole]",127.9 to 130.9 °C,
"Clc1cccc(Cl)c1C1=NOC(Cc2ccccc2)C1 (stereo not shown) [compound 42, 5-Benzyl-3-(2,6-dichlorophenyl)-4,5-dihydroisoxazole]",90 to 90.5 °C,
"COc1ccc(CC2CC(c3c(Cl)cccc3Cl)=NO2)cc1 (stereo not shown) [compound 43, 3-(2,6-Dichlorophenyl)-5-(4-methoxybenzyl)-4,5-dihydroisoxazole]",90.1 to 90.6 °C,
"COc1ccc(C2=NOC(C)(Cc3ccccc3)C2)cc1 (stereo not shown) [compound 53, 5-Benzyl-3-(4-methoxyphenyl)-5-methyl-4,5-dihydro-isoxazole]",97.8 to 98.6 °C,
"CC1(Cc2ccccc2)CC(c2ccc3ccccc3c2)=NO1 (stereo not shown) [compound 57, 5-Benzyl-3-naphthalen-2-yl-5-methyl-4,5-dihydro-isoxazole]",144.8 to 146.3 °C,
"COc1ccc(C2=NOC(CCc3ccccc3)C2)cc1 (stereo not shown) [compound 60, 3-(4-Methoxy-phenyl)-5-phenethyl-4,5-dihydro-isoxazole]",69.7 to 71.9 °C,
"Fc1ccc(C2=NOC(CCc3ccccc3)C2)cc1 (stereo not shown) [compound 62, 3-(4-Fluoro-phenyl)-5-phenethyl-4,5-dihydro-isoxazole]",69.8 to 71.2 °C,
"Clc1ccc(C2=NOC(CCc3ccccc3)C2)cc1 (stereo not shown) [compound 63, 3-(4-Chloro-phenyl)-5-phenethyl-4,5-dihydro-isoxazole]",74.8 to 75.7 °C,
"COc1ccccc1C1=NOC(Cc2ccccc2)(c2ccccc2)C1 (stereo not shown) [compound 74, 5-Benzyl-3-(2-methoxyphenyl)-5-phenyl-4,5-dihydro-isoxazole]",109.3 to 110.2 °C,
"Fc1ccccc1C1=NOC(Cc2ccccc2)(c2ccccc2)C1 (stereo not shown) [compound 75, 5-Benzyl-3-(2-fluorophenyl)-5-phenyl-4,5-dihydro-isoxazole]",134.3 to 135.2 °C,
"Clc1ccc(C2=NOC(Cc3ccccc3)(c3ccccc3)C2)cc1 (stereo not shown) [compound 76, 5-Benzyl-3-(4-chlorophenyl)-5-phenyl-4,5-dihydro-isoxazole]",120.3 to 122.1 °C,
"COc1cccc(C2=NOC(Cc3ccccc3)(c3ccccc3)C2)c1 (stereo not shown) [compound 77, 5-Benzyl-5-phenyl-3-(3-methoxyphenyl)-4,5-dihydro-isoxazole]",94.4 to 95.2 °C,
"Oc1cccc(CCC2=NOC(Cc3ccccc3)C2)c1 (stereo not shown) [compound 92, 5-Benzyl-3-[2-(3-hydroxy-phenyl)-ethyl]-4,5-dihydro-isoxazole]",120.6 to 122.8 °C,
"Oc1ccc(CCC2=NOC(Cc3ccccc3)C2)cc1 (stereo not shown) [compound 93, 5-Benzyl-3-[2-(4-hydroxy-phenyl)-ethyl]-4,5-dihydro-isoxazole]",143 to 144.8 °C,
"Oc1ccc(CC2CC(CCc3ccccc3)=NO2)cc1 (stereo not shown) [compound 94, 5-(4-Hydroxy-benzyl)-3-phenethyl-4,5-dihydro-isoxazole]",124.8 to 126.4 °C,
"Oc1ccccc1CCC1=NOC(Cc2ccc(F)cc2)C1 (stereo not shown) [compound 97, 5-(4-Fluoro-benzyl)-3-[2-(2-hydroxy-phenyl)-ethyl]-4,5-dihydro-isoxazole]",124.8 to 126.4 °C,
"c1ccc(CC2CC(c3ccccc3)=NO2)cc1 (stereo not shown) [compound 107, 5-Benzyl-3-phenyl-4,5-dihydroisoxazole]",67 to 68 °C,
"c1ccc(CCC2=NOC(c3ccccc3)C2)cc1 (stereo not shown) [compound 110, 3-Phenethyl-5-phenyl-4,5-dihydroisoxazole]",35 to 36.3 °C,
"c1ccc(CCC2CC(c3ccccc3)=NO2)cc1 (stereo not shown) [compound 111, 5-Phenethyl-3-phenyl-4,5-dihydroisoxazole]",66.1 to 67.2 °C,
